The record followed here is patent US20240114902A1, “COMPOSITIONS AND METHODS FOR DETERRING OVIPOSITION BY FRUIT FLIES” (The United States of America, as represented by The …, priority 2022, published 2024).

Test [1] deals with Zeugodacus cucurbitae. Briefly: Spatial repellency of fatty acid methyl esters, two-choice traps with pumpkin juice. The format is in vivo. Conditions: 100 μL doses. The source says: The methods used to test the repellency of fatty acid methyl esters for OFF described above were used in this Example, with minor modifications. The only difference was that pumpkin juice was used as attractant in traps. Melon flies used in this study were from melon fly colony at the U.S Pacific Basin Agricultural Research Center in Hilo, Hawaii, which were maintained on a standard larval diet containing wheat, sugar, and yeast (Tanaka at al., Supra). Chemicals tested were C8:0ME (Methyl octanoate), C10:0ME (Methyl decanoate), C12:0ME (Methyl laurate), C14:0ME (Methyl tetradecanoate), C16:0ME (Methyl palmitate), C18:0ME (Methyl stearate), C18:1ME (Methyl Oleate), and C18:2 (Methyl linoleate).

Test [2] concerns Bactrocera dorsalis. The test is described as follows: B. dorsalis spatial deterrence, two-choice traps baited with guava juice. The format is in vivo. Conditions: tested individually. The method, then: In addition to CFA, a series of odd-numbered carbon fatty acids (C9:0 to C17:0) and fatty acid methyl esters were evaluated for the spatial deterrence to B. dorsalis that results in oviposition reduction. Table 3 below lists the fatty acid methyl esters tested for spatial repellency for Bactrocera dorsalis. […] FIG. 16A, FIG. 16C, FIG. 16E, FIG. 16G, FIG. 16I, FIG. 16K, FIG. 16M, FIG. 16O, FIG. 16Q, and FIG. 16S show the mean numbers (±SEM) of mated female B. dorsalis flies captured, and FIG. 16B, FIG. 16D, FIG. 16F, FIG. 16H, FIG. 16J, FIG. 16L, FIG. 16N, FIG. 16P, FIG. 16R, and FIG. 16T show the number of B. dorsalis eggs oviposited in traps baited with guava juice (control) and with guava juice plus one of the coconut fatty acid methyl ester compounds in two-choice bioassays. For each test, different letter on the bar indicate a significant difference by Tukey-Kramer tests at P<0.05, n=4.

Test [3] relates to melon fly (Zeugodacus cucurbitae). The test is described as follows: Additional fatty acids: melon fly two-choice oviposition bioassay on pumpkin juice agar. The format is in vivo. The conditions noted are these: 20 mg, 24 hours. As for the experimental part:
(§1) Oviposition bioassays were conducted using laboratory two-choice cage experiments with pumpkin juice-infused agar (for Melon fly) and guava juice-infused agar (for OFF) as oviposition substrate. The agar plates were prepared by pouring 10 mL of boiled agar mixture [1000 mL distilled water, 500 mL pumpkin or guava juice, 10 g agar, 0.6 g methylparaben, 6.7 mL 95% ethanol, and 3 mL acetic acid] into a small petri dish (60 mm×15 mm). The agar was then covered with a lid to avoid desiccation. The two-choice oviposition bioassay was conducted in screened cages using 20 mated melon fly or OFF females per cage (14-18 day-old; Jang et al.; Supra) over 24 hours. Each cage was provided with a ball of water-saturated cotton and sugar+protein hydrolysate mixture in separate 30 mL deli cups, and two agar plates-one treated with one of the test compounds (C4:0 (Butyric acid), C5:0 (Valeric acid), C6:0 (Caproic acid), C7:0 (Enanthic acid), C9:0 (Pelargonic acid), C11:0 (Undecylic acid), C13:0 (Tridecylic acid), C15:0 (Pentadecylic acid), C17:0 (Margaric acid), or C19:0 (Nonadecylic acid)) diluted in ethanol and the other treated with the ethanol which served as a control. The agar plates were surface-treated either with 200 μL of ethanol (control) or 200 μL of one of tested compounds diluted at 20 mg/200 μL of ethanol, placed into a fume hood for 10 minutes to evaporate solvents prior to be used in bioassays, and positioned upside-down (i.e. treated side down) on the center of the outside top of the screened cage 17 cm apart from each other (i.e. one each of control and treated), allowing female flies to oviposit on pumpkin (for melon fly) or guava juice (for OFF) agar from the bottom through the cage screen. After 24 hours, melon fly and OFF eggs in the agar were gently separated from the agar in water and the number of eggs were individually counted. The experiment was replicated five times per treatment.

The test system of test [4] is oriental fruit fly (OFF). Briefly: Additional fatty acids: OFF two-choice oviposition bioassay on guava juice agar, 24 hours. It is filed as in vivo, Bactrocera dorsalis. The conditions noted are these: individual compound, 20 mg dose. The method, then:
as §1

In test [5] the test system is Bactrocera dorsalis (OFF). Briefly: OFF two-choice cage oviposition bioassay on guava juice-infused agar. The format is in vivo. Conditions: individual compound, 20 mg/agar. The method, then: Evaluation of oviposition deterrence of CFA: OFF oviposition bioassays were conducted using laboratory two-choice cage experiments with guava juice-infused agar as an oviposition substrate. The agar plates were prepared by pouring 30 mL of boiled agar mixture [1000 mL distilled water, 500 mL guava juice (Deans Foods, El Paso, Texas, USA), 10 g agar, 0.6 g methylparaben, 6.7 mL 95% ethanol, and 3 mL acetic acid] into a 30 mL deli plastic cup to gel. The agar was then covered with a lid to avoid desiccation. The two-choice oviposition bioassay was conducted in screened cages using 20 mated OFF females per cage (12-18 day-old; Jang E B et al., 1997, “Attraction of female oriental fruit fly, Bactrocera dorsalis, to volatile semiochemicals from leaves and extracts of a non-host plant, Panax (Polyscias guilfoylei) in laboratory and olfactometer assays,” J. Chem. Ecol. 23:1389-1401) over 3 days. Each cage was provided with a ball of water-saturated cotton, sugar, and protein hydrolysate in separate 30 mL deli cups and two guava juice agar plates-one treated with CFA diluted in hexane and the other treated with the hexane control. The agar plates were surface-treated either with 200 μL of hexane or 200 μL of CFA in one of 4 doses tested (20, 2, 0.2, and 0.02 mg/200 μL of hexane), placed into a fume hood for 10 minutes prior to use in bioassays, and positioned upside-down (i.e., treated side down) on the center of the outside top of the screened cage 17 cm apart from each other (i.e., one each of control and CFA treated), allowing female flies to oviposit on guava juice agar from the bottom through the cage screen. After three days, OFF eggs in the guava agar were gently separated from the agar in water and the number of eggs were individually counted (up to 100 eggs) or estimated volumetrically at 1 mL OFF eggs=20,000 eggs (Stephanie Gayle personal communication). The experiment was replicated six times per treatment. Determination of bioactive oviposition deterrent components from CFA: A series of bioassays was conducted to identify key deterrent components of CFA for OFF using the same two-choice bioassay design described above. […] Ethanol was used as control and for preparing dilutions of C16:0 and C18:0. Hexane was used as control and for dilutions of the other six compounds tested. Based on the outcome of these bioassays, the eight free fatty acid components were assigned to “OFF negative” (i.e., oviposition reduced), “OFF neutral” (i.e., no effect on oviposition), and “OFF positive” (i.e., oviposition increased) compound groups. Using these groupings, four different blends were formulated (indicated in Table 1), composed at the equivalent ratios and concentrations of each component found in CFA (Zhu J J et al., 2018, supra), to determine key bioactive CFA components in terms of oviposition deterrence on OFF. The approach involved testing the bioactivity of the OFF negative-component blend (4c blend) for oviposition deterrence at three different doses (2, 0.2, and 0.02 mg CFA equivalent/agar), first comparing with hexane control, then with CFA at respective equivalent doses. As the 4c blend was not as effective as CFA, a “OFF negative+OFF neutral” component blend (6c blend) was then formulated, and its effect compared with CFA at 2 and 0.2 mg CFA equivalent/agar. Two subtraction blends with one of the two OFF neutral components removed from the 6c blend (5c-i and 5c-ii blends) were formulated and compared with the 6c blend at 2 and 0.2 mg CFA equivalent/agar. The experiment was replicated four to six times per treatment.

For the molecule `CCCCCCCCCCCC(=O)OC` [C12:0 ME, Methyl laurate], the “fewer Z. cucurbitae captured in traps baited with FAME vs control” value (shortened to “fewer Z. cucurbitae captured … vs control”) in test [1] was found to be 55.5%. Moreover, the “effect on female B. dorsalis attraction and oviposition to host fruit odors” value (from here on “effect … to host fruit odors”) in test [2] is given as “significantly reduced”.
In the case of `CCCCCCCCCCCCCCC(=O)O` [C15:0, Pentadecylic acid], the “effect on melon fly oviposition vs control” value in test [3] is listed as “increased melon fly oviposition”.
On to `CCCCCC(=O)O` [C6:0, Caproic acid], for which the “effect on OFF oviposition” value in test [4] is “did not affect OFF oviposition”. Besides, in test [3], the “effect on melon fly oviposition vs control” value is recorded as “increased melon fly oviposition”.
As to `CCCCCCCC/C=C\CCCCCCCC(=O)OC` [C18:1ME, Methyl Oleate], the “fewer Z. cucurbitae captured … vs control” value in test [1] came out at 91.8%.
Turning to `CCCCCCCCCCCCCCCCC(=O)O` [C17:0, Margaric acid], in test [3], the “effect on melon fly oviposition vs control” value is listed as “increased melon fly oviposition”.
For the molecule `CCCCCCCCCC(=O)OC` [C10:0 ME, Methyl caprate], the “fewer Z. cucurbitae captured … vs control” value in test [1] was 76.0%. Also, the “effect … to host fruit odors” value in test [2] is on record as “significantly reduced”.
`CCCCCCC(=O)O` [C7:0, Enanthic acid]: in test [4], the “effect on OFF oviposition” value is “did not affect OFF oviposition”. The “effect … to host fruit odors” value in test [2] is listed as “significantly reduced”. Also, the “effect on melon fly oviposition vs control” value in test [3] is “increased melon fly oviposition”.
Take `CCCC(=O)O` [C4:0, Butyric acid]: the “effect on OFF oviposition” value in test [4] is “did not affect OFF oviposition”. In test [3], the “effect on melon fly oviposition vs control” value is on record as “did not affect melon fly oviposition”.
As to `CCCCCCCCCCCCCC(=O)OC` [C14:0 ME, Methyl myristate], in test [1], the “effect on melon fly behavior” value is on record as “did not affect melon fly behavior”.
Take `CCCCCCCCCCCCC(=O)O` [C13:0, Tridecylic acid]: in test [5], the “effect on OFF oviposition vs control agar” value is “significantly reduced”. Besides, the “fewer melon fly eggs on treated pumpkin juice agar vs control agar” value in test [3] is recorded as 75.7%.
As for `CCCCC/C=C\C/C=C\CCCCCCCC(=O)OC` [C18:2ME, Methyl linoleate], the “effect on melon fly behavior” value in test [1] was “did not affect melon fly behavior”.
On the same count and under the same terms, to `CCCCCCCCCCCCCCCC(=O)OC` [C16:0 ME, Methyl palmitate] belongs “did not affect melon fly behavior”.
As for `CCCCCCCCC(=O)OC` [C9:0 ME, Methyl pelargonate], the “effect … to host fruit odors” value in test [2] is recorded as “significantly reduced”.
Take `CCCCCCCCCCCCCCCCCC(=O)OC` [C18:0ME, Methyl stearate]: the “effect on melon fly behavior” value in test [1] is listed as “did not affect melon fly behavior”.
Turning to `CCCCCCCCCCCCCCCCCCC(=O)O` [C19:0, Nonadecylic acid], the “effect on melon fly oviposition vs control” value in test [3] is “did not affect melon fly oviposition”.
For `CCCCCCCCCCCCC(=O)OC` [C13:0 ME, Methyl tridecanoate], in test [2], the “effect … to host fruit odors” value is recorded as “significantly reduced”.
With `CCCCCCCC(=O)OC` [C8:0 ME, Methyl caprylate], the “fewer Z. cucurbitae captured … vs control” value in test [1] was found to be 97.1%. In addition, the “effect … to host fruit odors” value in test [2] is recorded as “significantly reduced”.
`CCCCCCCCCCC(=O)OC` [C11:0 ME, Methyl undecanoate]: the “effect … to host fruit odors” value in test [2] is recorded as “significantly reduced”.
On to `CCCCCCCCC(=O)O` [C9:0, Pelargonic acid], for which the “effect on OFF oviposition vs control agar” value in test [5] is “significantly reduced”. The “effect … to host fruit odors” value in test [2] is “significantly reduced”. Also, in test [3], the “effect on melon fly oviposition vs control” value is reported as “did not affect melon fly oviposition”.
Regarding `CCCCC(=O)O` [C5:0, Valeric acid], in test [4], the “effect on OFF oviposition” value is on record as “did not affect OFF oviposition”. In test [3], the “fewer melon fly eggs on treated pumpkin juice agar vs control agar” value amounted to 72.5%.
